Measured values taken from patent publication US20100273700A1, “USE OF A PEPTIDE AS A THERAPEUTIC AGENT” (priority 2007, published 2010).

System: drug-resistant Mycobacterium tuberculosis
Settings: 5 micrograms per ml

`CC(C)C[C@H](NC(=O)[C@H](Cc1ccccc1)NC(=O)CNC(=O)CNC(=O)[C@@H](N)Cc1ccc(O)cc1)C(=O)N[C@@H](CCCNC(=N)N)C(=O)N[C@@H](CCCNC(=N)N)C(=O)N[C@@H](CCC(N)=O)C(=O)N[C@@H](Cc1ccccc1)C(=O)N[C@@H](CCCCN)C(=O)N[C@H](C(=O)N[C@H](C(=O)N[C@H](C(=O)O)[C@@H](C)O)C(C)C)C(C)C` [Dynorphin B] was tested, and the “% inhibition” value was 0.0%.
